For 39 molecules, IC50 results are on record in patent US20230013227A1, “ARYL-ANILINE AND HETEROARYL-ANILINE COMPOUNDS FOR TREATMENT OF BIRTHMARKS” (NFlection Therapeutics, Inc., priority 2018, published 2023).

One test concerns the target T1, MAP2K1 (MEK1) (Homo sapiens, UniProt Q02750).
T1 construct: purchased ThermoFisher
The test can be described thus: MEK Inhibition Assay-2 (Example 3): Z'-LYTE biochemical assay. To be noted: Table 6; procedure of Example 3; read-out: IC50 against MEK1. On the procedure:
MEK1 inhibitory activity of compounds were tested using the following procedure (protocol available at thermofisher.com/content/dam/LifeTech/migration/files/drug-discovery/pdfs.par.60256.file.dat/20130430%20ssbk%20customer%20protocol%20and%20assay%20conditions.pdf). The Z′-LYTE biochemical assay (ThermoFisher) employs a fluorescence-based, coupled-enzyme format and is based on the differential sensitivity of phosphorylated and non-phosphorylated peptides to proteolytic cleavage.
Test compounds in 100% DMSO were screened in 1% DMSO (final) in the well. For 10 point titrations, 3-fold serial dilutions are conducted from the starting concentration of 30 μM.
After the 1 hour incubation, 5 μL of a 1:1024 dilution of Development Reagent A (available from Invitrogen, catalog no. PV3295) was added.
ATP solutions were diluted to a 4× working concentration in Kinase Buffer (50 mM HEPES pH 7.5, 0.01% BRIJ-35, 10 mM MgCl2, 1 mM EGTA). ATP Km apparent was previously determined using a Z′-LYTE assay. The Development Reagent was diluted in Development Buffer (available from Invitrogen, catalog no. P3127).
Assay Protocol: 2.5 μL of 4× test compound or 100 nL of 100× Test Compound plus 2.4 μL Kinase Buffer, 5 μL of the 2× Peptide/Kinase Mixture, 2.5 μL of 4×ATP Solution were added to the plates and placed on a shake plate for 30-seconds. The kinase reaction was allowed to proceed for 60-minute at room temperature, before 5 μL of Development Reagent Solution was added, and the mixture agitated for 30-seconds on a shake plate. The mixture was incubated for 60-minute at room temperature. Fluorescence was measured using a plate reader and the data were analyzed.
This control yielded 100% cleaved peptide in the Development Reaction. The 100% Phosphorylation Control, which consisted of a synthetically phosphorylated peptide of the same sequence as the peptide substrate, was designed to allow for the calculation of percent phosphorylation. This control yielded a very low percentage of cleaved peptide in the Development Reaction. The 0% Phosphorylation and 100% Phosphorylation Controls allow for the calculation of the percent phosphorylation achieved in a specific reaction well.
The minimum emission ratio in a screen was established by the 0% Inhibition Control, which contained active kinase. This control was designed to produce a 10-50% phosphorylated peptide in the Kinase Reaction. Cascade assays may produce up to 70% phosphorylated peptide.
A known inhibitor control standard curve, 10 point titration, was run for each individual kinase on the same plate as the kinase to ensure the kinase was inhibited within an expected IC50 range previously determined.
The following controls are prepared for each concentration of Test Compound assayed. […] The expected value for a non-interfering compound should be 100%. Any value outside of 90% to 110% was flagged. […] The expected value for a non-fluorescence compound should be 0%. Any value >20% was flagged.
The data in Table A was calculated. XLfit from IDBS was used. The dose response curve was curve fit to model number 205 (sigmoidal dose-response model).

The target of a further test is T2, MEK1 (Homo sapiens, UniProt Q02750).
T2 construct: N-terminal His-tagged recombinant human full length protein; purchased Invitrogen PV3303; host or cells: insect cells
The test can be described thus: MEK Inhibition Assay-1 (Example 2): 33P-ATP, P81 filter-binding kinase assay. The note with it: Example 2, read-out: Assay 1: biochemical MEK IC50. On the procedure: The following procedure can be used to measure biochemical activity. MEK1 inhibitory activity of compounds were tested using the following procedure. […] Nat Biotechnoi 2011, 29(11), 1039-45.
• Reaction buffer: 20 mM Hepes (pH 7.5), 10 mM MgCl2, 1 mM EGTA, 0.02% Brij35, 0.02 mg/mL BSA, 0.1 mM Na3VO4, 2 mM DTT, 1% DMSO • Enzyme: MEK1, Invitrogen cat #PV3303 • N-terminal His-tagged recombinant human full length protein, expressed in insect cells. Activated in vitro by RAF1. MW=49.2 kDa, GenBank Accession No. NP_002746. • Substrate: 5 μM ERK2 (K52R), • Kinase-dead mutant, (GenBank Accession No. NM_0011949), aa2-358 with N-terminal His6 tag, MW=43.63 kDa, expressed in E. coli.
The substrate was prepared in freshly prepared Reaction Buffer. The kinase was delivered into the substrate solution and gently mixed. Test compounds were delivered in 100% DMSO into the kinase reaction mixture by Acoustic technology (Echo550; nanoliter range), and incubated for 20 min at room temperature. ^33P-ATP was delivered into the reaction mixture to initiate the reaction. The reaction mixture was incubated for 2 hours at room temperature. Kinase activity was detected by P81 filter-binding method.

Setting [1] is: Table 7, compounds of formula (I).
[2] abbreviates: Table 10, compounds of formula (IV).

Each structure is given as a SMILES string. Read-outs that look alike come from different tables or passages of the source.

T2 sequence (Q02750 whole entry): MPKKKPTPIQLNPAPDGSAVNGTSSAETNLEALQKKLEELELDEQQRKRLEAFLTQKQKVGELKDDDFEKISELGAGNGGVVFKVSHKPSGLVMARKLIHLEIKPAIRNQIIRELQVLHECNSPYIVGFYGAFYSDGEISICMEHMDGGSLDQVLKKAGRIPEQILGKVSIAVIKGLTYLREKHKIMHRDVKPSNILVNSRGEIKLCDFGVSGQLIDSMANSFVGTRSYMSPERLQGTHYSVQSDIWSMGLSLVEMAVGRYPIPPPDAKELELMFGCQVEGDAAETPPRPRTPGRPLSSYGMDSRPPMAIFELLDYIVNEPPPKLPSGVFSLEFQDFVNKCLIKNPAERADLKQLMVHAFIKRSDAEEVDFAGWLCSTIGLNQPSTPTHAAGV
T1 sequence (Q02750 whole entry): as above

Take `O=c1c2c(Nc3ccc(I)cc3F)cncc2ccn1C[C@H](O)CO` [Compound 5.002]: at MAP2K1 (MEK1), the IC50 was not above 150 nM.

As to `O=C1c2c(cncc2Nc2ccc(I)cc2F)CCN1OCCO` [Compound 5.010], the IC50 at MAP2K1 (MEK1) was 150 to 1500 nM.

For the molecule `N#Cc1ccc(C(=O)NOCCO)c(Nc2ccc(I)cc2F)c1F` [Compound 1.030], the IC50 on MAP2K1 (MEK1) and at MEK1 (setting [1]) was not above 150 nM throughout.

In the case of `CCON1CCc2cncc(Nc3ccc(I)cc3F)c2C1=O` [Compound 5.011, 2-ethoxy-8-((2-fluoro-4-iodophenyl)amino)-3,4-dihydro-2,6-naphthyridin-1(2H)-one], the IC50 at MAP2K1 (MEK1) fell in the range of 150 to 1500 nM.

Consider `NCCCn1ccc2cncc(Nc3ccc(I)cc3F)c2c1=O` [Compound 5.003], for which the IC50 at MAP2K1 (MEK1) was in the range of 150 to 1500 nM.

Take `CC(=O)c1sc(Nc2ccc(I)cc2F)c(C(=O)NOCCO)c1C` [Compound 4.013]: the values for the IC50 at MAP2K1 (MEK1) and on MEK1 (setting [2]) were 150 to 1500 nM and not above 500 nM, respectively.

Consider `N#Cc1ccc(C(=O)O)c(Nc2ccc(I)cc2F)c1` [Compound 1.001], for which the IC50 at MAP2K1 (MEK1) is 150 to 1500 nM.

With `O=c1c2c(Nc3ccc(I)cc3F)cncc2ccn1C[C@@H](O)CO` [Compound 5.001], at MAP2K1 (MEK1), the IC50 is not above 150 nM.

Take `O=c1c2c(Nc3ccc(I)cc3F)cncc2ccn1OCCO` [Compound 5.007]: the IC50 on MAP2K1 (MEK1) is 150 to 1500 nM.

Regarding `CC(=O)c1sc(Nc2ccc(I)cc2F)c(C(=O)N[C@@H]2CCNC2)c1C` [Compound 4.017], on MEK1 (setting [2]), the IC50 is 500 to 1000 nM.

Consider `CONC(=O)c1c(Nc2ccc(I)cc2F)sc(C(C)=O)c1C` [Compound 4.021], for which, on MEK1 (setting [2]), the IC50 lay within 500 to 1000 nM.

As for `N#Cc1ccc(C(=O)NOCCO)c(Nc2ccc(I)cc2F)c1` [Compound 1.010], the IC50 on MAP2K1 (MEK1) and on MEK1 (setting [1]) was not above 150 nM in each case.

In the case of `CCONC(=O)c1ccc(C#N)cc1Nc1ccc(I)cc1F` [Compound 1.008], the IC50 is 150 to 1500 nM on MAP2K1 (MEK1) and not above 150 nM on MEK1 (setting [1]).

For `CC(=O)c1sc(Nc2ccc(I)cc2F)c(C(=O)NC[C@H](O)CO)c1C` [Compound 4.014], the IC50 at MAP2K1 (MEK1) lay in the range of 150 to 1500 nM.

With `CC(=O)c1sc(Nc2ccc(I)cc2F)c(C(=O)N2CC[C@@H](N)C2)c1C` [Compound 4.018], the IC50 on MEK1 (setting [2]) lay within 5000 to 10000 nM.

Turning to `CC(=O)c1sc(Nc2ccc(I)cc2F)c(C(=O)NOCC2CC2)c1C` [Compound 4.023], the IC50 on MEK1 (setting [2]) is not above 500 nM.

In the case of `N#Cc1ccc(C(=O)N2CC(O)C2)c(Nc2ccc(I)cc2F)c1` [Compound 1.002], the IC50 at MAP2K1 (MEK1) was more than 1500 nM.

On to `N#Cc1ccc(C(=O)NOCCN)c(Nc2ccc(I)cc2F)c1` [Compound 1.018], for which the IC50 on MAP2K1 (MEK1) is 150 to 1500 nM.

`COC(=O)Cn1ccc2cncc(Nc3ccc(I)cc3F)c2c1=O` [Compound 5.005]: at MAP2K1 (MEK1), the concentration for half-maximal inhibition (IC50) is more than 1500 nM.

With `O=C1CCCc2c1sc(Nc1ccc(I)cc1F)c2C(=O)NC[C@@H](O)CO` [Compound 4.035], on MAP2K1 (MEK1), the IC50 is not above 150 nM.

As for `CC(=O)c1sc(Nc2ccc(I)cc2F)c(C(=O)N[C@@H]2CCCNC2)c1C` [Compound 4.016], at MEK1 (setting [2]), the IC50 lay within 500 to 1000 nM.

Regarding `COC(=O)CCONC(=O)c1ccc(C#N)cc1Nc1ccc(I)cc1F` [Compound 1.022], the half-inhibitory concentration (IC50) on MAP2K1 (MEK1) is more than 1500 nM.

Take `CC(=O)c1sc(Nc2ccc(I)cc2F)c(C(=O)NC[C@@H](O)CO)c1C` [Compound 4.015]: the IC50 at MAP2K1 (MEK1) was 150 to 1500 nM.

On to `Cc1cc(I)ccc1Nc1cc(C#N)ccc1C(=O)NOCC1CC1` [Compound 1.013], for which the IC50 at MAP2K1 (MEK1) fell in the range of 150 to 1500 nM.

With `N#Cc1ccc(C(=O)NOCC2CC2)c(Nc2ccc(I)cc2F)c1` [Compound 1.012], on MAP2K1 (MEK1), the IC50 was 150 to 1500 nM.

Turning to `Cc1cc(I)ccc1Nc1cc(C#N)ccc1C(=O)NOCCO` [Compound 1.011], the IC50 at MAP2K1 (MEK1) was in the range of 150 to 1500 nM.

With `N#Cc1ccc(C(=O)NO)c(Nc2ccc(I)cc2F)c1` [Compound 1.017], the IC50 at MAP2K1 (MEK1) was not above 150 nM.

As to `CONC(=O)c1ccc(C#N)cc1Nc1ccc(I)cc1F` [Compound 1.007], the half-inhibitory concentration (IC50) on MAP2K1 (MEK1) and on MEK1 (setting [1]) was 150 to 1500 nM in each case.

With `CCONC(=O)c1c(Nc2ccc(I)cc2F)sc(C(C)=O)c1C` [Compound 4.022], the IC50 on MEK1 (setting [2]) is not above 500 nM.

Consider `O=c1c2c(Nc3ccc(I)cc3F)cncc2ccn1O` [Compound 5.006], for which the IC50 at MAP2K1 (MEK1) lay within 150 to 1500 nM.

For the molecule `CC(=O)c1sc(Nc2ccc(I)cc2F)c(C(=O)NCC(C)(C)N)c1C` [Compound 4.020], the IC50 at MEK1 (setting [2]) is 1000 to 5000 nM.

As to `O=C1NCCc2cncc(Nc3ccc(I)cc3F)c21` [Compound 5.012], the IC50 at MAP2K1 (MEK1) lay in the range of 150 to 1500 nM.

Turning to `NCCONC(=O)c1c(Nc2ccc(I)cc2F)sc2c1CCCC2=O` [Compound 4.033], the IC50 at MAP2K1 (MEK1) is not above 150 nM.

Consider `CCCONC(=O)c1ccc(C#N)cc1Nc1ccc(I)cc1F` [Compound 1.009], for which the IC50 at MAP2K1 (MEK1) and on MEK1 (setting [1]) was 150 to 1500 nM throughout.

As for `O=C(O)Cn1ccc2cncc(Nc3ccc(I)cc3F)c2c1=O` [Compound 5.004], the IC50 on MAP2K1 (MEK1) was more than 1500 nM.

On to `O=C1CCCc2c1sc(Nc1ccc(I)cc1F)c2C(=O)NOCC1CC1` [Compound 4.032], for which the IC50 on MAP2K1 (MEK1) is not above 150 nM; on MEK1 (setting [2]) it was not above 500 nM.

As to `O=C1CCCc2c1sc(Nc1ccc(I)cc1F)c2C(=O)NOC[C@H](O)CO` [Compound 4.030], at MAP2K1 (MEK1), the IC50 was not above 150 nM.

In the case of `O=C1CCCc2c1sc(Nc1ccc(I)cc1F)c2C(=O)NC[C@H](O)CO` [Compound 4.034], the IC50 on MAP2K1 (MEK1) is not above 150 nM.

For `N#Cc1ccc(C(=O)NOCC2CC2)c(Nc2ccc(I)cc2F)c1F` [Compound 1.031], the IC50 at MAP2K1 (MEK1) and on MEK1 (setting [1]) was not above 150 nM each time.

In general, IC50 refers to the point on the concentration scale where inhibition reaches its midpoint.
